Test results as given in ChEMBL document CHEMBL4325854, “Synthetic small molecules as anti-biofilm agents in the struggle against antibiotic resistance” (Eur J Med Chem, 2019).
pIC50: −log10 of the molar value.

Experiments:
Staphylococcus aureus [1] = test: Antibiofilm activity against methicillin-resistant Staphylococcus aureus ATCC BAA-44; format: functional, organism-based
Staphylococcus aureus [2] = test: Antibiofilm activity against methicillin-resistant Staphylococcus aureus ATCC BAA-44 preformed biofilms assessed as reduction in biofilm dispersion; format: functional, organism-based
Vibrio cholerae [3] = test: Antibiofilm activity against Vibrio cholerae; format: functional, organism-based
Vibrio cholerae [4] = test: Antibiofilm activity against Vibrio cholerae assessed as inhibition of biofilm dispersion; format: functional, organism-based
Sortase A = target: T1, Sortase A (Staphylococcus aureus, UniProt Q9S446); test: Inhibition of Staphylococcus aureus SrtA
T1 sequence (Q9S446 whole entry): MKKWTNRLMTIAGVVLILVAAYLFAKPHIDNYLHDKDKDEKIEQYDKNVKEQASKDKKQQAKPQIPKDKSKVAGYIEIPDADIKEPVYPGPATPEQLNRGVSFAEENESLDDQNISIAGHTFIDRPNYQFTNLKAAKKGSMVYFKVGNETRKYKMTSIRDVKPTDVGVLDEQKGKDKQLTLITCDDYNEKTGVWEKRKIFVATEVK

Staphylococcus aureus [5] = test: Antibiofilm activity against Staphylococcus aureus ATCC 6538; format: functional, organism-based
Staphylococcus aureus [6] = test: Antibiofilm activity against Staphylococcus aureus ATCC 29213 at 25 ug/ml relative to control; format: functional
[7] = system: Staphylococcus epidermidis; test: Antibiofilm activity against Staphylococcus epidermidis at 25 ug/ml relative to control; format: functional
Staphylococcus aureus [8] = test: Antibiofilm activity against Staphylococcus aureus ATCC 29213 at 6.2 ug/ml relative to control; format: functional
[9] = system: Staphylococcus epidermidis; test: Antibiofilm activity against Staphylococcus epidermidis; format: functional
Enterococcus faecium = test: Antibiofilm activity against Enterococcus faecium; format: functional
Staphylococcus aureus [10] = test: Antibiofilm activity against methicillin-resistant Staphylococcus aureus isolate 2; format: functional
Staphylococcus aureus [11] = test: Antibiofilm activity against methicillin-resistant Staphylococcus aureus BAA-1707; format: functional
Enterococcus = test: Antibiofilm activity against vancomycin-resistant Enterococcus; format: functional
Staphylococcus aureus [12] = test: Antibiofilm activity against methicillin-resistant Staphylococcus aureus; format: functional, organism-based
Enterococcus faecalis = test: Antibiofilm activity against Enterococcus faecalis; format: functional
[13] = target: Fucose-binding lectin PA-IIL (Pseudomonas aeruginosa (strain ATCC 15692 / DSM 22644 / CIP 104116 / JCM14847 / LMG 12228 / 1C / PRS 101 / PAO1), UniProt Q9HYN5); test: Inhibition of N-(Fluorescein-5-yl)-N'-(alpha-L-fucopyranosyl ethylen)thiocarbamide binding to Pseudomonas aeruginosa PA14 LecB after 22 to 24 hrs by fluorescence polarization assay
Chain of Fucose-binding lectin PA-IIL (Q9HYN5 1-115): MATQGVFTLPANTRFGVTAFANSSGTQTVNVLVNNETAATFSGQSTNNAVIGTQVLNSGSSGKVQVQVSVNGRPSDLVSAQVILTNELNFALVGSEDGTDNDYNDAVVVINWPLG

`CCCCC(Cl)(Cl)C1NC(=O)/C(=C/c2ccc(C(F)(F)F)cc2)O1` (stereo not drawn) showed a pIC50 (Staphylococcus aureus [1]) of 6.11 and a pIC50 (Staphylococcus aureus [2]) of 5.33.
Compound `O[C@H](c1cc(-c2cccc(S(F)(F)(F)(F)F)c2)nc2ccccc12)[C@@H]1CCCN1` has a pIC50 (Vibrio cholerae [3]) of 5.36 and a DC50 (Vibrio cholerae [4]) of 7.4 µM.
With `CCOC(=O)/C(=N/Nc1c(F)cccc1F)C(=O)c1cc(C)nn1CC` the pIC50 (Sortase A) was 4.12 and the pIC50 (Staphylococcus aureus [5]) was 6.05.
For `Cc1nn(C)c([N-]C(=O)c2ccc([N+](=O)[O-])cc2)c1[N+]#N`, the Activity (Staphylococcus aureus [6]) was 69 - 96%, the Activity [7] was 69 - 96% and the Activity (Staphylococcus aureus [8]) was 86.5%.
`CCc1cccc2nc3c(O)c(Br)cc(Br)c3nc12` showed an MBEC [9] of 2.35 µM and an MBEC (Enterococcus faecium) of 0.59 µM.
With `Oc1c(Br)cc(Br)c2ccc(CNc3ccc(F)cc3)nc12` the MBEC [9] was 5.9 µM, the MBEC (Staphylococcus aureus [10]) was 93.8 µM and the MBEC (Staphylococcus aureus [11]) was 7.8 µM. The MBEC (Enterococcus) was 1 µM.
For `CCCCCCCCCCCC[N+](C)(C)CCNCC[N+](C)(C)CCCCCCCCCCCC`, the MBEC (Staphylococcus aureus [12]) was 50 µM and the MBEC (Enterococcus faecalis) was 25 µM.
In the case of `Cc1cc(C)c(S(=O)(=O)NC[C@H]2O[C@@H](C)[C@@H](O)[C@@H](O)[C@@H]2O)c(C)c1`, the pIC50 [13] was 6.47.
